Test results as given in ChEMBL document CHEMBL1150492, “Topliss approach to the synthesis of biologically active substituted N-benzoyl taxol analogues” (1994).

Columns and labels:
[1] = In vitro effect on microtubule assembly relative to that of Taxol, expressed as ED50/ED50 (Taxol=1); assay type: functional
B16 = assay: In vitro effect on B16 melanoma cytotoxicity relative to that of Taxol, expressed as ED50/ED50 (Taxol=1); assay type: functional, Mus musculus

SMILES | ED50 ratio [1] | ED50 ratio (B16)
CC(=O)O[C@H]1C(=O)[C@@]2(C)[C@H]([C@H](OC(=O)c3ccccc3)[C@]3(O)C[C@H](OC(=O)[C@H](O)[C@@H](NC(=O)c4ccc([N+](=O)[O-])cc4)c4ccccc4)C(C)=C1C3(C)C)[C@]1(OC(C)=O)CO[C@@H]1C[C@@H]2O | 2 | 20.7
CC(=O)O[C@H]1C(=O)[C@@]2(C)[C@H]([C@H](OC(=O)c3ccccc3)[C@]3(O)C[C@H](OC(=O)[C@H](O)[C@@H](N)c4ccccc4)C(C)=C1C3(C)C)[C@]1(OC(C)=O)CO[C@@H]1C[C@@H]2O | 21 | –
CC(=O)O[C@H]1C(=O)[C@@]2(C)[C@H]([C@H](OC(=O)c3ccccc3)[C@]3(O)C[C@H](OC(=O)[C@H](O)[C@@H](NC(=O)c4ccc(Cl)cc4)c4ccccc4)C(C)=C1C3(C)C)[C@]1(OC(C)=O)CO[C@@H]1C[C@@H]2O | 2.4 | 1.5
CC(=O)O[C@H]1C(=O)[C@@]2(C)[C@H]([C@H](OC(=O)c3ccccc3)[C@]3(O)C[C@H](OC(=O)[C@H](O)[C@@H](NC(=O)c4ccc(C)cc4)c4ccccc4)C(C)=C1C3(C)C)[C@]1(OC(C)=O)CO[C@@H]1C[C@@H]2O | 1.6 | 1.4
COc1ccc(C(=O)N[C@@H](c2ccccc2)[C@@H](O)C(=O)O[C@H]2C[C@@]3(O)[C@@H](OC(=O)c4ccccc4)[C@@H]4[C@]5(OC(C)=O)CO[C@@H]5C[C@H](O)[C@@]4(C)C(=O)[C@H](OC(C)=O)C(=C2C)C3(C)C)cc1 | 0.6 | 1.3
CC(=O)O[C@H]1C(=O)[C@@]2(C)[C@H]([C@H](OC(=O)c3ccccc3)[C@]3(O)C[C@H](OC(=O)[C@H](O)[C@@H](NC(=O)c4ccccc4)c4ccccc4)C(C)=C1C3(C)C)[C@]1(OC(C)=O)CO[C@@H]1C[C@@H]2O [PACLITAXEL] | 1 | 1
CC(=O)O[C@H]1C(=O)[C@@]2(C)[C@H]([C@H](OC(=O)c3ccccc3)[C@]3(O)C[C@H](OC(=O)[C@H](O)[C@@H](NC(=O)c4ccccc4C)c4ccccc4)C(C)=C1C3(C)C)[C@]1(OC(C)=O)CO[C@@H]1C[C@@H]2O | 1.9 | 7.5
CC(=O)O[C@H]1C(=O)[C@@]2(C)[C@H]([C@H](OC(=O)c3ccccc3)[C@]3(O)C[C@H](OC(=O)[C@H](O)[C@@H](NC(=O)c4cccc(N(C)C)c4)c4ccccc4)C(C)=C1C3(C)C)[C@]1(OC(C)=O)CO[C@@H]1C[C@@H]2O | 1.4 | 1.6
CC(=O)O[C@H]1C(=O)[C@@]2(C)[C@H]([C@H](OC(=O)c3ccccc3)[C@]3(O)C[C@H](OC(=O)[C@H](O)[C@@H](NC(=O)c4ccc(F)cc4)c4ccccc4)C(C)=C1C3(C)C)[C@]1(OC(C)=O)CO[C@@H]1C[C@@H]2O | 1.2 | 4.3
CC(=O)O[C@H]1C(=O)[C@@]2(C)[C@H]([C@H](OC(=O)c3ccccc3)[C@]3(O)C[C@H](OC(=O)[C@H](O)[C@@H](NC(=O)c4cccc(Cl)c4)c4ccccc4)C(C)=C1C3(C)C)[C@]1(OC(C)=O)CO[C@@H]1C[C@@H]2O | 2 | 1.8
CC(=O)O[C@H]1C(=O)[C@@]2(C)[C@H]([C@H](OC(=O)c3ccccc3)[C@]3(O)C[C@H](OC(=O)[C@H](O)[C@@H](NC(=O)c4ccc(Cl)c(Cl)c4)c4ccccc4)C(C)=C1C3(C)C)[C@]1(OC(C)=O)CO[C@@H]1C[C@@H]2O | 2.1 | 10.6
